Data set [1] in a line: Plasma pharmacokinetics of irinotecan, SN-38, SN-38G and APC (HPLC, noncompartmental). The following applies: for change of AUC when irinotecan administered immediately after epirubicin: Course 1 vs Course 2, paired t-test; for SN-38G AUCt: mean ±s.d., dose standardised to 100 mg irinotecan; for AUC in Course 1 compared to Course 2, higher by: second patient with elevated bilirubin (1.5 times ULN), irinotecan 80 mg m^−2. The method, then:
(§1) Atropine was administered if diarrhoea, abdominal cramping or other symptoms of early cholinergic syndrome occurred within 1 h of receiving irinotecan. […] Dexamethasone and a 5-HT3 antagonist were administered to all patients as standard premedications unless contraindicated.
(§2) Samples were centrifuged immediately at room temperature, and plasma was separated and stored in aliquots at −20°C until analysis.
Irinotecan, SN-38 and APC concentrations were determined using a high-performance liquid chromatography assay. […] The fluorescence detector was operated at an excitation wavelength of 372 nm, irinotecan and APC were monitored at an emission wavelength of 425 nm, while SN-38 and the internal standard were monitored at 535 nm. SN-38 glucuronide (SN-38G) concentrations were estimated as increases in SN-38 concentrations after incubation of plasma samples with β-glucuronidase.
(§3) Pharmacokinetic parameters were determined by noncompartmental methods using WinNonlin (Version 3.0, Pharsight Corp., Mountain View, CA, USA). […] Pharmacokinetic parameters were compared using the paired t-test. A probability of P<0.05 was considered significant. The program S-PLUS for Windows (Version 6) (Insightful Corp., Seattle, WA, USA) was used for statistical analysis.

The conditions of data set [2]: cited from earlier work; for AUC when given together with paclitaxel: attributed to vehicle Cremophor EL, ref Yamamoto et al, 1999; for AUC when given together with carboplatin: ref Okamoto et al, 1998.
Details of data set [3]: method as in Vanhoefer et al, 2001. The following applies: single-agent, weekly or every-3-week regimen; ref Vanhoefer et al, 2001; cited from earlier work.
Data set [4] has as its system patients with advanced solid tumours. The settings on record: triple combination, Day 1 every 3 weeks; normal total serum bilirubin. As to the method: as §1
Data set [5] can be described thus: clinical. The following applies: for half-life: t1/2 (elimination half-life); for half-life / clearance: mean ±s.d.; for clearance: plasma, intravenous, CL (total body clearance). The method, then: as §1, §2
Samples were added to C8 solid-phase extraction tubes and extracts were dried on an evaporator. […] The fluorescence detector was set at excitation 480 nm and emission 560 nm.
as §3

Setting [6] is: human, plasma, intravenous, 100 mg.

Where a name gives a salt, the structure may show the parent alone.

In the case of `CCc1c2c(nc3ccc(O[C@@H]4O[C@H](C(=O)O)[C@@H](O)[C@H](O)[C@H]4O)cc13)-c1cc3c(c(=O)n1C2)COC(=O)[C@]3(O)CC` [SN-38G, SN-38 glucuronide], in data set [1], the “change of AUC when irinotecan administered immediately after epirubicin” value was “increased significantly” and the “AUC in Course 1 compared to Course 2, higher by” value is reported as over 60%. Moreover, the “SN-38G AUCt” value in data set [1] (Irinotecan → epirubicin (Course 2)) is 378 ± 223 ng·h/mL. For the same compound, the “SN-38G AUCt” value in data set [1] (Irinotecan+epirubicin (Course 1)) is 558 ± 480 ng·h/mL.
On to `CCc1c2c(nc3ccc(OC(=O)N4CCC(NCCCCC(=O)O)CC4)cc13)-c1cc3c(c(=O)n1C2)COC(=O)[C@]3(O)CC` [APC], for which, in data set [1], the “change of AUC when irinotecan administered immediately after epirubicin” value is given as “increased significantly” and the “AUC in Course 1 compared to Course 2, higher by” value is over 60%. In addition, in data set [1] (human, in vivo, 100 mg), the “APC AUCt” value worked out at 725 ± 460 ng·h/mL.
By AUC(0-inf) is commonly meant total exposure, with the tail of the curve extrapolated. A high value points to high exposure. What is called AUC(0-t) is the area under the concentration-time curve up to a stated or last time point. Read a low AUC(0-t) as less exposure. `CCc1c2c(nc3ccc(OC(=O)N4CCC(N5CCCCC5)CC4)cc13)-c1cc3c(c(=O)n1C2)COC(=O)[C@]3(O)CC` [irinotecan, Irinotecan hydrochloride]: in data set [1] (setting [6]), the AUC(0-inf) was determined as 2960 ± 1020 ng·h/mL and the AUC(0-t) is 2870 ± 916 ng·h/mL. In data set [2], the “AUC when given together with paclitaxel” value is reported as “increased”; the “share of irinotecan and its metabolites excreted via the biliary tract” value was “Over 60%”; the “AUC when given together with carboplatin” value is on record as “lower”. Also, the “doses up to which pharmacokinetics is linear” value in data set [2] (ref Mathijssen et al, 2001) was “up to 180 mg m^−2”. Besides, the “share of the administered irinotecan dose converted to SN-38” value in data set [2] (ref Slatter et al, 2000) is listed as “less than 10%”. In addition, the “frequency of grade 3/4 late diarrhoea” value in data set [3] is given as over 20%. In addition, in data set [4], the “recommended phase II dose (MTD)” value was 110 mg m^−2.
As a reminder, the half-life is the time in which the quantity being followed falls by half. Read a high half-life as slow decline. In general, clearance refers to the rate of elimination divided by the concentration. High values mean efficient removal, low ones inefficient removal. As for `COc1cccc2c1C(=O)c1c(O)c3c(c(O)c1C2=O)C[C@@](O)(C(=O)CO)C[C@@H]3O[C@H]1C[C@H](N)[C@@H](O)[C@H](C)O1` [epirubicin], in data set [5] (human, in vivo), the “Vd (apparent volume of distribution)” value amounted to 2563 ± 1122 L. Further, the AUC(0-inf) in data set [5] (human, in vivo, 100 mg) came out at 910 ± 368 ng·h/mL. The same compound returned an AUC(0-t) in data set [5] (human, in vivo, 100 mg) of 723 ± 296 ng·h/mL. Besides, in data set [5] (human, in vivo, Vd (apparent volume of distribution)), the Vd was 3480 ± 1940 L. In addition, the half-life in data set [5] (human, in vivo, Irinotecan → epirubicin (Course 2)) is 960 ± 468 min; in data set [5] (human, in vivo, Irinotecan+epirubicin (Course 1)) it was 1390 ± 648 min. Besides, the clearance in data set [5] (human, Irinotecan → epirubicin (Course 2)) was 2080 mL/min; in data set [5] (human, Irinotecan+epirubicin (Course 1)), 1830 mL/min. Besides, in data set [5] (in vivo), the “effect of sequence of drug administration on pharmacokinetic parameters” value is recorded as “not affected by the sequence of drug administration”.
On to `CCc1c2c(nc3ccc(O)cc13)-c1cc3c(c(=O)n1C2)COC(=O)[C@]3(O)CC` [SN-38], for which the “SN-38 AUCt” value in data set [1] (human, in vivo) stood at 102 ± 54 ng·h/mL. Further, the “SN-38 AUCt” value in data set [1] (human, in vivo, 100 mg) was determined as 78 ± 36 ng·h/mL. For the same compound, in data set [2], the “AUC when given together with paclitaxel” value is reported as “increased” and the “AUC when given together with carboplatin” value was “lower”. Also, the “AUC when irinotecan is coadministered with doxorubicin” value in data set [2] (ref Dunphy et al, 2001) is reported as “not increased”.
For `COc1cccc2c1C(=O)c1c(O)c3c(c(O)c1C2=O)C[C@@](O)([C@@H](O)CO)C[C@@H]3O[C@H]1C[C@H](N)[C@@H](O)[C@H](C)O1` [Epi-ol, epirubicinol], the “Epi-ol AUCt” value in data set [5] (human, in vivo, 100 mg) came to 788 ± 482 ng·h/mL.

The record behind these values is paper PMC2376925 (British Journal of Cancer, 2003).
